Reference: US11613522B2, “Herbicidally active 3-phenylisoxazoline-5-carboxamides of tetrahydro- and dihydrofurancarboxamides” (BAYER AKTIENGESELLSCHAFT, priority 2017, dated 2023)

Legend:
Format in all cases: in vivo
Alopecurus myosuroides [1] = experiment: Pre-emergence herbicidal activity against ALOMY; settings: dosage 80 g/ha, scored visually after about 3 weeks vs untreated controls
Description: (§1) 1. Pre-emergence herbicidal action against harmful plants and crop plant compatibility Seeds of monocotyledonous and dicotyledonous weed plants and crop plants are placed in plastic or wood fiber pots and covered with soil. The compounds of the invention, formulated in the form of wettable powders (WP) or as emulsion concentrates (EC), are then applied onto the surface of the covering soil as aqueous suspension or emulsion with addition of 0.5% additive at a water application rate of 600 l/ha (converted). After the treatment, the pots are placed in a greenhouse and kept under good growth conditions for the trial plants. After about 3 weeks, the effect of the preparations is scored visually in comparison with untreated controls as percentages. For example, 100% activity=the plants have died, 0% activity=like control plants. [table]

Avena fatua [2] = experiment: Pre-emergence herbicidal activity against AVEFA; settings: dosage 80 g/ha, scored visually after about 3 weeks vs untreated controls; for pest or weed control at 80 g/ha: Avena fatua, 504 h, read-out: Pre-emergence herbicidal activity in % against AVEVA (AVEFA)
Description: as §1

Echinochloa crus-galli [3] = experiment: Pre-emergence herbicidal activity against ECHCG; settings: dosage 80 g/ha, scored visually after about 3 weeks vs untreated controls
Description: as §1

Amaranthus retroflexus [4] = experiment: Pre-emergence herbicidal activity against AMARE; settings: dosage 80 g/ha, scored visually after about 3 weeks vs untreated controls
Description: as §1

Stellaria media [5] = experiment: Pre-emergence herbicidal activity against STEME; settings: dosage 80 g/ha, scored visually after about 3 weeks vs untreated controls; for pest or weed control at 80 g/ha: Stellaria media, 504 h
Description: as §1

Veronica persica [6] = experiment: Pre-emergence herbicidal activity against VERPE; settings: dosage 80 g/ha
Description: as §1

Alopecurus myosuroides [7] = experiment: Post-emergence herbicidal activity against ALOMY; settings: dosage 320 g/ha, rated visually after about 3 weeks; for pest or weed control at 320 g/ha: Alopecurus myosuroides, 504 h
Procedure: (§2) [table] Seeds of monocotyledonous and dicotyledonous weeds and crop plants are placed in sandy loam in plastic or wood-fiber pots, covered with soil and cultivated in a greenhouse under controlled growth conditions. 2 to 3 weeks after sowing, the test plants are treated at the one-leaf stage. The compounds of the invention, formulated in the form of wettable powders (WP) or as emulsion concentrates (EC), are then sprayed onto the green parts of the plants as aqueous suspension or emulsion with addition of 0.5% additive at a water application rate of 600 l/ha (converted). After the test plants had been kept in the greenhouse under optimum growth conditions for about 3 weeks, the activity of the preparations is rated visually in comparison to untreated controls. For example, 100% activity=the plants have died, 0% activity=like control plants.

Avena fatua [8] = experiment: Post-emergence herbicidal activity against AVEFA; settings: dosage 320 g/ha, rated visually after about 3 weeks; for pest or weed control at 320 g/ha: Avena fatua, 504 h
Procedure: as §2

Echinochloa crus-galli [9] = experiment: Post-emergence herbicidal activity against ECHCG; settings: dosage 320 g/ha, rated visually after about 3 weeks; for pest or weed control at 320 g/ha: Echinochloa crus-galli, 504 h
Procedure: as §2

Setaria viridis [10] = experiment: Post-emergence herbicidal activity against SETVI; settings: dosage 320 g/ha, rated visually after about 3 weeks; for pest or weed control at 320 g/ha: Setaria viridis, 504 h
Procedure: as §2

Abutilon theophrasti = experiment: Post-emergence herbicidal activity against ABUTH; settings: dosage 320 g/ha, rated visually after about 3 weeks; for pest or weed control at 320 g/ha: Abutilon theophrasti, 504 h
Procedure: as §2

Pharbitis purpurea = experiment: Post-emergence herbicidal activity against PHBPU; settings: dosage 320 g/ha, rated visually after about 3 weeks; for pest or weed control at 320 g/ha: Ipomoea purpurea, 504 h
Procedure: as §2

Stellaria media [11] = experiment: Post-emergence herbicidal activity against STEME; settings: dosage 320 g/ha, rated visually after about 3 weeks; for pest or weed control at 320 g/ha: Stellaria media, 504 h
Procedure: as §2

Viola tricolor [12] = experiment: Post-emergence herbicidal activity against VIOTR; settings: dosage 320 g/ha, rated visually after about 3 weeks; for pest or weed control at 320 g/ha: Viola tricolor, 504 h
Procedure: as §2

Veronica persica [13] = experiment: Post-emergence herbicidal activity against VERPE; settings: dosage 320 g/ha, rated visually after about 3 weeks; for pest or weed control at 320 g/ha: Veronica persica, 504 h
Procedure: as §2

[14] = Pre-emergence herbicidal action against harmful plants (summary of the tables); settings: 504 h, application rate of 0.08 kg of active substance or less per hectare, read-out: herbicidal action, pre-emergence treatment (very good activity)
Description: as §1, with “plants.” for “plants. [table]”
As shown by the results, compounds according to the invention such as, for example, the compounds No. I-02 and other compounds from the tables (I-05, I-10, I-11, I-12, I-13, I-14, I-15, I-16, I-17, I-18, I-19, I-20, I-21, I-22, I-23, I-24, I-25, I-26, I-27, I-28, I-29) have, when used for pre-emergence treatment, very good activity (80% to 100% herbicidal action) against harmful plants such as Abutilon theophrasti, Alopecurus myosuroides, Amaranthus retroflexus, Avena fatua, Cyperus esculentus, Echinochloa crus-galli, Hordeum murinum, Lolium rigidum, Pharbitis purpurea, Polygonum convolvulus, Setaria viridis, Stellaria media, Veronica persica and Viola tricolor at an application rate of 0.08 kg of active substance or less per hectare.

Setaria viridis [15] = experiment: Pre-emergence herbicidal activity against SETVI; settings: dosage 80 g/ha, scored visually after about 3 weeks vs untreated controls
Description: as §1

Polygonum convolvulus [16] = experiment: Pre-emergence herbicidal activity against POLCO; settings: dosage 80 g/ha, scored visually after about 3 weeks vs untreated controls
Description: as §1

Viola tricolor [17] = experiment: Pre-emergence herbicidal activity against VIOTR; settings: dosage 80 g/ha, scored visually after about 3 weeks vs untreated controls
Description: as §1

Amaranthus retroflexus [18] = experiment: Post-emergence herbicidal activity against AMARE; settings: dosage 320 g/ha, rated visually after about 3 weeks
Procedure: as §2

Polygonum convolvulus [19] = experiment: Post-emergence herbicidal activity against POLCO; settings: dosage 320 g/ha, rated visually after about 3 weeks
Procedure: as §2

Lolium rigidum [20] = experiment: Pre-emergence herbicidal activity against LOLRI; settings: dosage 80 g/ha, scored visually after about 3 weeks vs untreated controls
Description: as §1

Hordeum murinum [21] = experiment: Pre-emergence herbicidal activity against HORMU; settings: dosage 80 g/ha
Description: as §1

Lolium rigidum [22] = experiment: Post-emergence herbicidal activity against LOLRI; settings: dosage 320 g/ha, rated visually after about 3 weeks
Procedure: as §2

Hordeum murinum [23] = experiment: Post-emergence herbicidal activity against HORMU; settings: dosage 320 g/ha, rated visually after about 3 weeks
Procedure: as §2

Row | SMILES | pest or weed control at 80 g/ha (Avena fatua [2]) | pest or weed control at 80 g/ha (Stellaria media [5]) | pest or weed control at 320 g/ha (Alopecurus myosuroides [7]) | pest or weed control at 320 g/ha (Avena fatua [8]) | pest or weed control at 320 g/ha (Echinochloa crus-galli [9]) | pest or weed control at 320 g/ha (Setaria viridis [10]) | pest or weed control at 320 g/ha (Abutilon theophrasti) | pest or weed control at 320 g/ha (Pharbitis purpurea) | pest or weed control at 320 g/ha (Stellaria media [11]) | pest or weed control at 320 g/ha (Viola tricolor [12]) | pest or weed control at 320 g/ha (Veronica persica [13]) | pest or weed control at 80 g/ha [14] | Pre-emergence herbicidal activity in % against ALOMY (Alopecurus myosuroides [1]) | Pre-emergence herbicidal activity in % against AVEVA (AVEFA) (Avena fatua [2]) | Pre-emergence herbicidal activity in % against LOLRI (Lolium rigidum [20]) | Pre-emergence herbicidal activity in % against SETVI (Setaria viridis [15]) | Pre-emergence herbicidal activity in % against AMARE (Amaranthus retroflexus [4]) | Pre-emergence herbicidal activity in % against POLCO (Polygonum convolvulus [16]) | Pre-emergence herbicidal activity in % against STEME (Stellaria media [5]) | Pre-emergence herbicidal activity in % against VIOTR (Viola tricolor [17]) | also measured
1 | C=CC1(C(=O)N[C@@H]2CO[C@H](C(=O)NC)C2)CC(c2cc(F)cc(F)c2)=NO1 (relative stereo) [Example I-02, 3-(3,5-difluorophenyl)-N-[cis-5-(methylcarbamoyl)tetrahydrofuran-3-yl]-5-vinyl-4H-isoxazole-5-carboxamide] | 100% | 100% | 100% | 90% | 80% | 90% | 80% | 90% | 90% | 80% | 80% | 80 to 100% |  |  |  |  |  |  |  |  | pest or weed control at 80 g/ha (Alopecurus myosuroides [1]; Alopecurus myosuroides, 504 h): 90%; pest or weed control at 80 g/ha (Echinochloa crus-galli [3]; Echinochloa crus-galli, 504 h): 100%; pest or weed control at 80 g/ha (Amaranthus retroflexus [4]; Amaranthus retroflexus, 504 h): 100%; pest or weed control at 80 g/ha (Veronica persica [6]; Veronica persica, 504 h): 90%
2 | CNC(=O)[C@@H]1C[C@H](NC(=O)C2(C)CC(c3cc(F)cc(F)c3)=NO2)CO1 (relative stereo) [Example I-05, 3-(3,5-difluorophenyl)-5-methyl-N-[cis-5-(methylcarbamoyl)tetrahydrofuran-3-yl]-4H-isoxazole-5-carboxamide] | 100% | 80% | 90% | 80% | 90% | 80% | 80% | 80% | 80% | 80% | 80% | 80 to 100% |  |  |  |  |  |  |  |  | pest or weed control at 80 g/ha (Setaria viridis [15]; Setaria viridis, 504 h): 90%; pest or weed control at 80 g/ha (Polygonum convolvulus [16]; Fallopia convolvulus, 504 h): 90%; pest or weed control at 80 g/ha (Viola tricolor [17]; Viola tricolor, 504 h): 100%; pest or weed control at 320 g/ha (Amaranthus retroflexus [18]; Amaranthus retroflexus, 504 h): 80%; pest or weed control at 320 g/ha (Polygonum convolvulus [19]; Fallopia convolvulus, 504 h): 80%
3 | C=CC1(C(=O)NC2COC(C(=O)NC(C)CC(=O)OCC)C2)CC(c2cc(F)cc(F)c2)=NO1 (centres unmarked) [Example I-22] |  |  |  |  |  |  |  |  |  |  |  |  | 100% | 100% | 100% | 100% | 100% | 100% | 90% | 100% | Pre-emergence herbicidal activity in % against VERPE (Veronica persica [6]): 100%; Pre-emergence herbicidal activity in % against HORMU (Hordeum murinum [21]): 100%; Post-emergence herbicidal activity in % against ALOMY (Alopecurus myosuroides [7]): 100%; Post-emergence herbicidal activity in % against AVEFA (Avena fatua [8]): 100%; Post-emergence herbicidal activity in % against ECHCG (Echinochloa crus-galli [9]): 100%; Post-emergence herbicidal activity in % against LOLRI (Lolium rigidum [22]): 100%; Post-emergence herbicidal activity in % against SETVI (Setaria viridis [10]): 90%; Post-emergence herbicidal activity in % against ABUTH (Abutilon theophrasti): 80%; Post-emergence herbicidal activity in % against AMARE (Amaranthus retroflexus [18]): 90%; Post-emergence herbicidal activity in % against PHBPU (Pharbitis purpurea): 90%; Post-emergence herbicidal activity in % against POLCO (Polygonum convolvulus [19]): 80%; Post-emergence herbicidal activity in % against STEME (Stellaria media [11]): 80%; Post-emergence herbicidal activity in % against VIOTR (Viola tricolor [12]): 80%; Post-emergence herbicidal activity in % against VERPE (Veronica persica [13]): 80%; Post-emergence herbicidal activity in % against HORMU (Hordeum murinum [23]): 100%
4 | CN(C)NC(=O)[C@@H]1C[C@H](NC(=O)[C@@]2(C)CC(c3cc(F)cc(F)c3)=NO2)CO1 [Example I-26] |  |  |  |  |  |  |  |  |  |  |  |  | 100% | 90% | 100% | 90% | 100% | 90% | 100% | 80% | Pre-emergence herbicidal activity in % against ECHCG (Echinochloa crus-galli [3]): 90%; Pre-emergence herbicidal activity in % against VERPE (Veronica persica [6]): 80%; Pre-emergence herbicidal activity in % against HORMU (Hordeum murinum [21]): 90%; Post-emergence herbicidal activity in % against ALOMY (Alopecurus myosuroides [7]): 100%; Post-emergence herbicidal activity in % against AVEFA (Avena fatua [8]): 100%; Post-emergence herbicidal activity in % against ECHCG (Echinochloa crus-galli [9]): 100%; Post-emergence herbicidal activity in % against LOLRI (Lolium rigidum [22]): 100%; Post-emergence herbicidal activity in % against SETVI (Setaria viridis [10]): 80%; Post-emergence herbicidal activity in % against ABUTH (Abutilon theophrasti): 80%; Post-emergence herbicidal activity in % against AMARE (Amaranthus retroflexus [18]): 80%; Post-emergence herbicidal activity in % against PHBPU (Pharbitis purpurea): 90%; Post-emergence herbicidal activity in % against POLCO (Polygonum convolvulus [19]): 80%; Post-emergence herbicidal activity in % against STEME (Stellaria media [11]): 100%; Post-emergence herbicidal activity in % against VIOTR (Viola tricolor [12]): 90%; Post-emergence herbicidal activity in % against VERPE (Veronica persica [13]): 80%; Post-emergence herbicidal activity in % against HORMU (Hordeum murinum [23]): 100%
